How the values were obtained:
rat [1] = test: Anticonvulsant action against electroshock; assay type: in vivo; details: 100 mg/kg oral, electroshock 30 min after treatment, score 0 to 4, untreated controls 4
Method: Cette action a été étudiée vis-à-vis des électrochocs. L'application chez le rat d'une stimulation électrique supérieure au seuil électro-convulsivant provoque des convulsions expérimentales. On compare alors chez les animaux témoins et chez les animaux traités, à la fois la présence et la durée de chacune des phases convulsives et l'intensité de la crise dans son ensemble.
On établit des séries de 10 rats par produit à tester et on administre par la voie orale, à chaque animal, 100 mg/kg de ce produit.
De chaque côté de la base de la queue de chaque […], une électrode Cat mise en place et 30 minutes après le traitement, l'animal placé dans une enceinte de verre reçoit pendant 50 millisecondes un courant sinusoïdal de 50 périodes/secondes de 120 volts.
Le passage du courant déclenche une crise convulsive dont chacune des phases (tonique, clonique, relachement musculaire) est chronométrée. L'intensité de la crise est alors notée de 0 à 4 selon la présence de chacune des phases et leur durée. Les produits de l'invention sont testés comparativement au phénobarbital qui possède une action anti-convulsivante marquée (intensité de la crise = 2), alors que chez les animaux témoins non traités c'est l'intensité maxima de 4 qui est obtenue.

rat [2] = test: Generalised ovalbumin oedema; assay type: in vivo; details: po, 100 mg/kg per os 1 h before and together with ovalbumin
Method: Une injection intrapéritonéale simultanée de 1 ml d'ovalbumine et de 0,5 ml d'une solution aqueuse de bleu Evans à 1% est effectuée sur le rat. D'autre part, on administre per os aux animaux du lot traité 100 mg/kg du dérivé à tester une heure avant et en même temps que l'ovalbumine. L'intensité du phénomène ainsi provoqué est notée par un chiffre allant de 1 à 5 suivant la progression du syndrome inflammatoire. On détermine ainsi la moyenne de l'intensité oedémateuse et le pourcentage de diminution de la réaction oedémateuse par rapport au témoin, en fonction du temps.

rat [3] = test: Localised carrageenan-induced oedema; assay type: in vivo; details: 100 mg/kg oral at -1 h, 0 h, +2.5 h
Method: Une solution de carragénine (0,1 ml), à 1 %, est injectée dans les fléchisseurs métatarsiens de la patte postérieure droite du rat au temps 0. Les animaux du lot traité reçoivent en outre, par la voie orale, 100 mg par kg du dérivé à tester respectivement 1 heure avant, en même temps que l'injection de l'agent phlogogène, puis 1 heure et 2 heures et demi après. Les mesures qui sont effectuées à l'aide du micromètre de ROGH au temps 0, 1 heure, 2 heures, 3 heures et 5 heures après l'administration de la carragénine permettent de déterminer, en fonction du temps, le pourcentage d'activité anti-inflammatoire, par comparaison avec le lot témoin.

souris = test: Potentiation of an infra-hypnotic dose of sodium pentobarbital; assay type: in vivo; details: mouse, 100 mg/kg oral, 30 min before i.p. infra-hypnotic dose of sodium pentobarbital; control 0
Method: Les composés de l'invention potentialisent de façon très nette l'action des hypnotiques. En effet, administrés à différents lots de souris par la voie orale, à la dose de 100 mg/ kg, trente minutes avant l'injection intrapéritonéale d'une dose infra-hypnotique de pentobarbital sodique, ils produisent par rapport aux animaux témoins non traités, une nette poten- tialisation de l'action du barbiturique.
En effet, le nombre de souris endormies, le temps moyen d'endormissement et la durée du sommeil sont nettement accrus dans les lots traités. Les résultats des composés les plus actifs sont rassemblés dans le Tableau I suivant.

[4] = Acute toxicity, intravenous LD50 (method of Miller and Tainter); design: species or system souris; details: mouse, in vivo, read-out: DL50/24 H/kg de poids corporel
Method: En ce qui concerne la toxicité aigüe, la DL50/24 H/kg de poids corporel, déterminée chez la souris selon la méthode de Miller et Tainter pour la voie orale est supérieure à 400 mg pour tous les dérivés.
Selon la même méthode, la DL50/24 H/kg de poids corporel déterminée par la vole intraveineuse est, par exemple, de 154 mg pour le dérivé N° 1, de 89 mg pour le dérivé N° 2, de 184mg pour le dérivé N° 10, de 130 mg pour le dérivé N° 11, de 350mg pour le dérivé N° 12, de 65 mg pour le dérivé N° 18, de 90 mg pour le dérivé N° 22, de 96 mg pour le dérivé N° 24 et de 105 mg pour le dérivé N° 31.

[5] = 2 h after ovalbumin injection, read-out: Pourcentage d'activité anti-inflammatoire 2ème heure
[6] = 3 h after ovalbumin injection, read-out: Pourcentage d'activité anti-inflammatoire 3ème heure
[7] = 1 h after carrageenan, read-out: Pourcentage d'activité anti-inflammatoire 1ère heure
[8] = 2 h after carrageenan, read-out: Pourcentage d'activité anti-inflammatoire 2ème heure
[9] = 3 h after carrageenan, read-out: Pourcentage d'activité anti-inflammatoire 3ème heure
[10] = 5 h after carrageenan, read-out: Pourcentage d'activité anti-inflammatoire 5ème heure

SMILES | valeurs moyennes de l'intensité des crises (rat [1]) | inhibition in vivo at 100 mg/kg (rat [2]; [5]) [%] | inhibition in vivo at 100 mg/kg (rat [2]; [6]) [%] | inhibition in vivo at 100 mg/kg (rat [3]; [7]) [%] | inhibition in vivo at 100 mg/kg (rat [3]; [8]) [%] | inhibition in vivo at 100 mg/kg (rat [3]; [9]) [%] | inhibition in vivo at 100 mg/kg (rat [3]; [10]) [%] | Pourcentage d'animaux endormis (souris) [%] | LD50 at 24 h [4] [mg/kg]
CCNC(=O)c1cc2sccc2cn1 [Dérivé 4, Ethylaminocarbonyl-6 thiéno [3,2-c] pyridine] | 3 | 47 | 56 | 41 | 46 | 50 | 58 | – | –
Cc1ccc(N2CCN(C(=O)c3cc4sccc4cn3)CC2)cc1 [Dérivé 26, (p-tolyl-4 pipérazinyl-1)carbonyl-6 thiéno[3,2-c]bvridine] | – | – | – | – | – | – | – | 90 | –
O=C(Nc1cccc(C(F)(F)F)c1)c1cc2sccc2cn1 [Dérivé 25, (trifluorométhyl-3 phényl)aminocarbonyl-6 thiéno[3,2-c] pyridine] | 2,5 | 51 | 59 | 39 | 46 | 49 | 52 | 90 | –
O=C(c1cc2sccc2cn1)N1CCN(c2ccccc2Cl)CC1 [Dérivé 27, (o-chlorophényl-4 pipérazinyl-1) carbonyl-6 thiéno[3,2-c] pyridine] | – | 47 | 56 | 41 | 49 | 52 | 54 | – | –
O=C(NCc1ccccc1)c1cc2ccsc2cn1 [Dérivé 13, Benzylaminocarbonyl-5 thiéno [2,3-c] pyridine] | 3 | 50 | 56 | 34 | 40 | 45 | 51 | – | –
CC(C)NC(=O)c1cc2ccsc2cn1 [Dérivé 5, Isopropylaminocarbonyl-5 thiéno [2,3-c] pyridine] | 2,5 | 52 | 60 | 43 | 49 | 54 | 56 | 80 | –
CCN(CC)CCNC(=O)c1cc2sccc2cn1 [Dérivé 18, β-diéthylaminoéthylaminocarbonyl-6 thiéno [3,2-c] pyridine] | – | 49 | 58 | 41 | 46 | 50 | 55 | 80 | 65
CCN(CC)C(=O)c1cc2sccc2cn1 [Dérivé 9, Diéthylaminocarbonyl-6 thiéno[3,2-c] pyridine] | 2,5 | – | – | – | – | – | – | – | –
COc1ccc(N2CCN(C(=O)c3cc4sccc4cn3)CC2)cc1 [Dérivé 29, (p-méthoxyphényl-4 pipérazinyl-1) carbonyl-6 tniéno[3,2-c] pyridine] | – | – | – | – | – | – | – | 90 | –
C=CCNC(=O)c1cc2sccc2cn1 [Dérivé 16, Allylaminocarbonyl-6 thiéno [3,2-c] pyridine] | – | – | – | – | – | – | – | 70 | –
CCC1(c2ccccc2)C(=O)NC(=O)NC1=O [phénobarbital, reference compound] | 2 | – | – | – | – | – | – | – | –
O=C(c1cc2sccc2cn1)N1CCCCC1 [Dérivé 11, Pipéridinocaxbonyl-6 thiéno [3,2-c] pyridine] | – | – | – | – | – | – | – | – | 130
CN(C)CCNC(=O)c1cc2sccc2cn1 [Dérivé 2, β -diméthylaminoéthylaminocarbonyl-6 thiéno [3,2-c] pyridine] | – | – | – | – | – | – | – | – | 89
O=C(NCCN1CCOCC1)c1cc2sccc2cn1 [Dérivé 19, β -morpholinoéthylaminocarbonyl-6 thiéno[3,2-c] pyridine] | 2,5 | – | – | – | – | – | – | – | –
COc1ccccc1N1CCN(C(=O)c2cc3ccsc3cn2)CC1 [Dérivé 30, (o-méthoxyphényl-4 pipérazinyl-1) carbonyl-5 thiéno[2,3-c] pyridine] | 2,5 | 48 | 56 | 38 | 45 | 49 | 53 | – | –
O=C(NCc1cccnc1)c1cc2ccsc2cn1 [Dérivé 23, (pyridyl-3 méthyl)aminocarbonyl-5 thiéno [2,3-c]pyridine] | – | – | – | – | – | – | – | 80 | –
O=C(NCc1ccncc1)c1cc2ccsc2cn1 [Dérivé 21, (pyridyl-4-méthyl)aminocarbonyl-5-thiéno[2,3-c] pyridine] | – | 45 | 52 | 40 | 48 | 51 | 54 | – | –
O=C(NCc1cccnc1)c1cc2sccc2cn1 [Dérivé 24, (pyridyl-3 méthyl)aminocarbonyl-6 thiéno[3,2-c] pyridine] | – | – | – | – | – | – | – | – | 96
O=C(c1cc2sccc2cn1)N1CCN(c2cccc(Cl)c2)CC1 [Dérivé 28, (m-chlorophényl-4 pipérazinyl-1)carbonyl-6 thiéno[3,2-c] pyridine] | – | – | – | – | – | – | – | 80 | –
O=C(NCCc1ccccc1)c1cc2sccc2cn1 [Dérivé 15, Phénéthylaminocarbonyl-6 thiéno[3,2-c] pyridine] | – | 53 | 60 | 38 | 45 | 49 | 53 | 90 | –
NC(=O)c1cc2ccsc2cn1 [Dérivé 32, Carbamoyl-5 thiéno [2,3-c] pyridine] | – | 52 | 60 | 34 | 41 | 45 | 47 | – | –
O=C(c1cc2sccc2cn1)N1CCOCC1 [Dérivé 12, Morpholinocarbonyl-6 thiéno [3,2-c] pyridine] | – | – | – | – | – | – | – | – | 350
CCCCNC(=O)c1cc2sccc2cn1 [Dérivé 6, n-butylaminocarbonyl-6 thiéno [3,2-c] pyridine] | – | – | – | – | – | – | – | 80 | –

— patent publication EP0003920A1, “Thieno (3,2-c)- and thieno (2,3-c)pyridines, process for their preparation and their therapeutical application” (OMNIUM FINANCIER AQUITAINE POUR L'HYGIENE ET LA SANTE - …, priority 1978, dated 1979)
